Experimental data: ChEMBL document CHEMBL1201862, “PubChem BioAssay data set” (2004)
Calls of active or inactive are those of the source.

Legend:
[1] = biological target: T1, Runt-related transcription factor 1/Core-binding factor subunit beta (Homo sapiens, UniProt Q01196+Q13951); assay: Runt domain/CBFb-SMMHC interaction disruptors – biochemical, TR-FRET (AID 1438); assay type: protein assay
[2] = biological target: T1, Runt-related transcription factor 1/Core-binding factor subunit beta; assay: disruptors of Runt domain/CBFb-SMMHC interaction – biochemical, FRET, Cerulean-Runt, Venus-CBFb-SMMHC, uHTS, […] (AID 1434); assay type: protein assay
[3] = Counterscreen for antagonists of the orexin 1 receptor (OX1R; HCRTR1): Fluorescence-based cell-based high throughput dose response assay to identify antagonists of the parental CHO cell line. [Related pubchem assays (depositor defined):AID434989, AID435008, AID463079, AID485270, AID492963, AID492964, AID492965, AID493232, AID504699, AID504701]; assay type: functional
[4] = viability of uninfected HEp-2 cells – cell-based, HTS, cytotoxicity control for RSV inhibitor project, dose response (AID 2410); assay type: functional; settings: human respiratory syncytial virus
[5] = biological target: T2, Orexin/Hypocretin receptor type 1 (Homo sapiens, UniProt O43613); assay: Fluorescence-based cell-based high throughput dose response assay for antagonists of the orexin 1 receptor (OX1R; HCRTR1). [Related pubchem assays (depositor defined):AID434989, AID435008, AID463079, AID485270, AID492963, AID492964, AID492965, AID493232, AID504717, AID504718]; assay type: functional
T2 sequence (O43613 whole entry): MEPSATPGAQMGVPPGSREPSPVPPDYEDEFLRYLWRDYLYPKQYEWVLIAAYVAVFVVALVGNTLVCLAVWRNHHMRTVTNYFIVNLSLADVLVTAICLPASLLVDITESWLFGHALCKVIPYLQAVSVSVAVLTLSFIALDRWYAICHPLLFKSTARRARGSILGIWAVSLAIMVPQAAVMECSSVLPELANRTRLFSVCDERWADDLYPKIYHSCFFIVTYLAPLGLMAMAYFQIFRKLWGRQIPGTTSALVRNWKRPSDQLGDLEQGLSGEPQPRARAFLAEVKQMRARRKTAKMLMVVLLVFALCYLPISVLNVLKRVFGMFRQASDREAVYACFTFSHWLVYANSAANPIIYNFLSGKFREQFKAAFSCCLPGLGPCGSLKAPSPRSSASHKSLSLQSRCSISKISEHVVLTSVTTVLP

CHO-K1 = assay: Counterscreen for antagonists of the orexin 1 receptor (OX1R; HCRTR1): Homogeneous time resolved fluorescence (HTRF)-based cell-based dose response assay to identify antagonists of the parental CHO-K1 cell line. [Related pubchem assays (depositor defined):AID434989, AID435008, AID463079, AID485270, AID492963, AID492964, AID492965, AID493232, AID504699, AID504701]; assay type: functional; settings: Cricetulus griseus;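 also: potency for inhibition of ATP-stimulated IP1 production as antagonists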
[6] = biological target: T2, Orexin/Hypocretin receptor type 1; assay: Homogeneous Time Resolved Fluorescence (HTRF)-based cell-based high throughput dose response assay for antagonists of the orexin 1 receptor (OX1R; HCRTR1). [Related pubchem assays (depositor defined):AID434989, AID435008, AID463079, AID485270, AID492963, AID492964, AID492965, AID493232, AID504717, AID504718]; assay type: functional
[7] = non-specific 3'UTR reporter inhibition in Clone20-Shn3RL – cell-based, Renilla luciferase, cherry-picked, counter-screen for Shn3 inhibitor project, dose response (AID 624133); assay type: functional
[8] = Intein inhibitors as potential Tuberculosis drugs, a cytotoxicity screen. [Related pubchem assays (depositor defined):AID2221, AID2223, AID434968, AID435010, AID449749, AID449750, AID489010]; assay type: functional
[9] = biological target: Potassium voltage-gated channel subfamily KQT member 2 (Rattus norvegicus, UniProt O88943, W236L); assay: potentiation of rat KCNQ2 current – cell-based, automated electrophysiology, mechanism study for KCNQ2 potentiator project, dose response (AID 2603); assay type: functional
Chain of Potassium voltage-gated channel subfamily KQT member 2 (O88943 whole entry W236L): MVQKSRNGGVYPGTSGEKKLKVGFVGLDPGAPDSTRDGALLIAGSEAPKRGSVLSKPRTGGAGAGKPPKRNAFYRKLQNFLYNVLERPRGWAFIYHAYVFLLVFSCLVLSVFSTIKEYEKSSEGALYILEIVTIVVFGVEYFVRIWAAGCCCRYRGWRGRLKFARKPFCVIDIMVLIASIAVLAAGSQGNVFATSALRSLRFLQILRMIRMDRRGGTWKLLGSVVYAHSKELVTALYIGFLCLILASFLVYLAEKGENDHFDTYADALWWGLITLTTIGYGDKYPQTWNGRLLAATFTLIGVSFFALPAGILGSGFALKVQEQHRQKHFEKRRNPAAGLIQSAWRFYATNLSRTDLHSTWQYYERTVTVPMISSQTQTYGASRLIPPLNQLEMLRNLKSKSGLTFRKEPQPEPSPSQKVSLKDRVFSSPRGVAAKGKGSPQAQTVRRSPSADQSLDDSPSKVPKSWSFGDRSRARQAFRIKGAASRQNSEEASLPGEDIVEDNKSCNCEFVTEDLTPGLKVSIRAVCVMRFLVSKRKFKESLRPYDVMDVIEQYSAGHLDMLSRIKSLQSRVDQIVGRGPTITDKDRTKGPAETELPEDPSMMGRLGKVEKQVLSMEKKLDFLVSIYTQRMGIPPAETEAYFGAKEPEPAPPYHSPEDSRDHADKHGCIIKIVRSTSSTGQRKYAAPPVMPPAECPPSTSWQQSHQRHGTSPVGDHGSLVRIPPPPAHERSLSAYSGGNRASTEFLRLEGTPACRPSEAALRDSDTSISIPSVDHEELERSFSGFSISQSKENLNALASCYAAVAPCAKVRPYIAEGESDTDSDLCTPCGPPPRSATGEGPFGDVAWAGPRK

Protein RecA = biological target: T3, Protein RecA (Mycobacterium tuberculosis, UniProt P9WHJ3); assay: Fluorescence Cell-Free Homogeneous Dose Retest to Identify Inhibitors of RecA-Intein Splicing Activity. [Related pubchem assays (depositor defined):AID2097, AID2223, AID489010, AID492950]; assay type: functional
T3 sequence (P9WHJ3 whole entry): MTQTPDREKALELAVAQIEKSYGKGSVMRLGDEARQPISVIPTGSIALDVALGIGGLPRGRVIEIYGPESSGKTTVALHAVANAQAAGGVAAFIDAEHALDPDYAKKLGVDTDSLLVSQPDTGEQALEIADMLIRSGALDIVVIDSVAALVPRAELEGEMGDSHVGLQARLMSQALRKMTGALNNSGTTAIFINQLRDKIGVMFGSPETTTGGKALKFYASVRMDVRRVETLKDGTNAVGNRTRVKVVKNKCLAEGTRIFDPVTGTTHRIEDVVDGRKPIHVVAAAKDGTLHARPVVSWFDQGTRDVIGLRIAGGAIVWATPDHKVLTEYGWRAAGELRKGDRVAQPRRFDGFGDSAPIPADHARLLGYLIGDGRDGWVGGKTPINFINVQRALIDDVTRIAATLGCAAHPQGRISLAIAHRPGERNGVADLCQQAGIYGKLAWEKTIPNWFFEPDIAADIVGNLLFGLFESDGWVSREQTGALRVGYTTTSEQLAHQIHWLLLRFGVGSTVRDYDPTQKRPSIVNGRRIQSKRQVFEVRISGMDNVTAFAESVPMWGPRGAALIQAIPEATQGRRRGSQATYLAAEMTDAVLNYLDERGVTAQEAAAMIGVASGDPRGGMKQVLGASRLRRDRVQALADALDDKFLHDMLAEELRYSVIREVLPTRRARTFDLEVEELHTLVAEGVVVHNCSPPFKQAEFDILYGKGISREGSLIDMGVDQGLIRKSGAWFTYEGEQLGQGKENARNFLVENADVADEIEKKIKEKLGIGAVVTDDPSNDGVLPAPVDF

[10] = biological target: Hepatocyte nuclear factor 4-alpha (Homo sapiens, UniProt P41235); assay type: functional, cell-based;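 also: biochemical luminescence-based dose-response counterscreen measuring inhibition of HNF4 dimerization, run alongside a screen for blockers of ABHD5–perilipin-5 interaction; split luciferase complementation of HNF4 fusion proteins in cell lysate measuring dimerization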
Chain of Hepatocyte nuclear factor 4-alpha (P41235 whole entry, the tested form may be a part): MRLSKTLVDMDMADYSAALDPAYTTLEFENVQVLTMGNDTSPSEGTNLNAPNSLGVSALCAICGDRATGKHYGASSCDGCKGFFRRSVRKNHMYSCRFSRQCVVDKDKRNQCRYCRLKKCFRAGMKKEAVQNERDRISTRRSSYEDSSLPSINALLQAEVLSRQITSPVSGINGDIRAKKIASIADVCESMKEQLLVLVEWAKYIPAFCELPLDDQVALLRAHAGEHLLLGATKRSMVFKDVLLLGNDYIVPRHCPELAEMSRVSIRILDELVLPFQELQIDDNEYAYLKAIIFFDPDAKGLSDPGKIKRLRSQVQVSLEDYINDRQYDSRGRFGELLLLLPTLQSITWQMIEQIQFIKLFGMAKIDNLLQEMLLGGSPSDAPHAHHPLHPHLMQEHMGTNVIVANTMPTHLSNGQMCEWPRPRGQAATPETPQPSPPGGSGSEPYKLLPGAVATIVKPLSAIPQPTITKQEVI

Genome polyprotein = Genome polyprotein (dengue virus type 2, UniProt P29990); assay: flavivirus cap methylation enzyme inhibition – biochemical, confirmation dose response, primary screen (AID 588689); assay type: functional
Vero = assay: viability of Vero cells under compound – cytotoxicity control for flavivirus capping enzyme inhibitors (AID 588742); assay type: functional; settings: Chlorocebus sabaeus
[11] = reduction of Shn3 3'UTR-driven luciferase in osteoblasts – cell-based, Clone20 osteoblasts, firefly luciferase, cherry-picked, dose response (AID 624132); assay type: functional;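 also: firefly luciferase luminescence from reporter carrying the Shn3 3'UTR in osteoblasts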
[12] = biological target: T4, Replicative DNA helicase DnaB (Mycobacterium tuberculosis, UniProt P9WMR3); assay: DnaB intein splicing inhibitors, dose response, biochemical, cell-free fluorescence (AID 449749); assay type: functional
T4 sequence (P9WMR3 whole entry): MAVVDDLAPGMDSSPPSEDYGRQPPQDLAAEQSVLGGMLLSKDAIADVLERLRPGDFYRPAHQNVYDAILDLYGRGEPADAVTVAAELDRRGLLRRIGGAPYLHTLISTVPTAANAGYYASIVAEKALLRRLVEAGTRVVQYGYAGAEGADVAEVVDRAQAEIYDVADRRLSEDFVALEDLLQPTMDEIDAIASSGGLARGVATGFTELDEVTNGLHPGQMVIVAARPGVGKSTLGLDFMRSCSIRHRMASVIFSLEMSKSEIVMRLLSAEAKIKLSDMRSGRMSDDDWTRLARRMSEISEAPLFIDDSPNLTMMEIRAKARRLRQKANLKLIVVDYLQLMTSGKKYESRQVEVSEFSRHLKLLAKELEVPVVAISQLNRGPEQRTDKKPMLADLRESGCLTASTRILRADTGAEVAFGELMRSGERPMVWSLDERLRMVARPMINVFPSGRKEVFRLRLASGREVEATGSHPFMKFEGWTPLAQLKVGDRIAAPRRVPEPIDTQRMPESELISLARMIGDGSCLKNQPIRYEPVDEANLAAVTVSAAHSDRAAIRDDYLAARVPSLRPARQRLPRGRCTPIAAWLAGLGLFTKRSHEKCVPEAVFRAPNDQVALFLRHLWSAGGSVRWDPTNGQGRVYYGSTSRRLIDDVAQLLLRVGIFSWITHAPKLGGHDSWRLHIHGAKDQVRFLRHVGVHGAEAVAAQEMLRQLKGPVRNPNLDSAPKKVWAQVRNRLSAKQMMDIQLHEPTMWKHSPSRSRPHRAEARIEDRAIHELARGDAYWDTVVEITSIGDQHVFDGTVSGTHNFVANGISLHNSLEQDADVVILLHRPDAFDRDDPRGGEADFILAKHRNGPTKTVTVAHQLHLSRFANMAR

[13] = biological target: Intestinal-type alkaline phosphatase (Homo sapiens, UniProt P09923); assay: human intestinal alkaline phosphatase activators, dose response, biochemical, luminescence, uHTS hits (AID 463120); assay type: functional
Chain of Intestinal-type alkaline phosphatase (P09923 whole entry): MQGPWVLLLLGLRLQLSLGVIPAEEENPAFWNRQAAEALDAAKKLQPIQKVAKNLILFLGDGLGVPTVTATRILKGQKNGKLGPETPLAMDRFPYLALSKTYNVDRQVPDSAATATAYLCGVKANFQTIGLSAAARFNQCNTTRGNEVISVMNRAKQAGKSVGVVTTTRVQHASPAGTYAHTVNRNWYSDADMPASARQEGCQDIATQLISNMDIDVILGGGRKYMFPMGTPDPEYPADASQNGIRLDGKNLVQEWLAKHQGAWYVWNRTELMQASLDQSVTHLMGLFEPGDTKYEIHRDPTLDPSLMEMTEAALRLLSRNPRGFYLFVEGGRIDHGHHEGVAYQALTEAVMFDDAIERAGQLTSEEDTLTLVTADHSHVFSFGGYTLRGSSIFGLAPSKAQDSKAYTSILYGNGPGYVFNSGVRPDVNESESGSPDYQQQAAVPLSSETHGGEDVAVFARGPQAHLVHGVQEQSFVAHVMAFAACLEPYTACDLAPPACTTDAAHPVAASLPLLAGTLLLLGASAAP

[14] = blockers of CRF-binding protein–CRF-R2 complex – cell-based, uHTS hits, 384-well, dose response (AID 651639); assay type: functional, Homo sapiens; settings: read-out: IC50_Mean
[15] = biological target: T5, Corticotropin-releasing factor receptor 2/Corticotropin-releasing factor-binding protein (Homo sapiens, UniProt P24387+Q13324); assay: activators of CRF receptor 2 with binding protein – uHTS hits, confirmation (AID 602473); assay type: functional; settings: read-out: EC50_Mean
T5 sequence (Q13324 whole entry): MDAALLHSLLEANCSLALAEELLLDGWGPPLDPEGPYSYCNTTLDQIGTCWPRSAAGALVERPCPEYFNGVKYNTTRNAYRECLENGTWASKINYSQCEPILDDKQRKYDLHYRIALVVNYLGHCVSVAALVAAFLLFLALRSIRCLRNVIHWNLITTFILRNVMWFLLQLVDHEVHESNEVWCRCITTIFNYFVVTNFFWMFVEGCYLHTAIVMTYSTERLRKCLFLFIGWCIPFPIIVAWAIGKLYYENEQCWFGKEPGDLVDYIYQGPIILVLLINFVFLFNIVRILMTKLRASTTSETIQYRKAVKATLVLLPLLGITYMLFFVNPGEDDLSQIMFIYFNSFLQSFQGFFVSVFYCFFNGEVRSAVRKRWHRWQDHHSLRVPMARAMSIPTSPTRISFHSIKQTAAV
T5 sequence (P24387 whole entry): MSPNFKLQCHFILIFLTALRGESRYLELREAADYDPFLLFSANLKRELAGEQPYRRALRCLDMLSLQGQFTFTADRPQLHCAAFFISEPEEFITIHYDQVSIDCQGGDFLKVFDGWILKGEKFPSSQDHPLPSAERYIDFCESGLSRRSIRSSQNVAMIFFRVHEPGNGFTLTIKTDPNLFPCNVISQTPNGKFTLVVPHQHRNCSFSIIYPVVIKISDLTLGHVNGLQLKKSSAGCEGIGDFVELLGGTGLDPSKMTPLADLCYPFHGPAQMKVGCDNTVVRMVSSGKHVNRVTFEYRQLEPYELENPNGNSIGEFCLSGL

[16] = biological target: T5, Corticotropin-releasing factor receptor 2/Corticotropin-releasing factor-binding protein; assay: Dose Response confirmation of uHTS hits for small molecule antagonists of the CRF-binding protein and CRF-R2 receptor complex.; assay type: functional; settings: read-out: IC50_Mean
[17] = biological target: T6, E3 ubiquitin-protein ligase XIAP (Homo sapiens, UniProt P98170); assay: Counter Screen using XIAP-Bir3 for Chemical Antagonists of Bir1/2 domains of IAP-family anti-apoptotic proteins. [Related pubchem assays (depositor defined):AID1018, AID1449, AID1514, AID1638, AID1749, AID1750, AID488957, AID488963]
T6 sequence (P98170 whole entry): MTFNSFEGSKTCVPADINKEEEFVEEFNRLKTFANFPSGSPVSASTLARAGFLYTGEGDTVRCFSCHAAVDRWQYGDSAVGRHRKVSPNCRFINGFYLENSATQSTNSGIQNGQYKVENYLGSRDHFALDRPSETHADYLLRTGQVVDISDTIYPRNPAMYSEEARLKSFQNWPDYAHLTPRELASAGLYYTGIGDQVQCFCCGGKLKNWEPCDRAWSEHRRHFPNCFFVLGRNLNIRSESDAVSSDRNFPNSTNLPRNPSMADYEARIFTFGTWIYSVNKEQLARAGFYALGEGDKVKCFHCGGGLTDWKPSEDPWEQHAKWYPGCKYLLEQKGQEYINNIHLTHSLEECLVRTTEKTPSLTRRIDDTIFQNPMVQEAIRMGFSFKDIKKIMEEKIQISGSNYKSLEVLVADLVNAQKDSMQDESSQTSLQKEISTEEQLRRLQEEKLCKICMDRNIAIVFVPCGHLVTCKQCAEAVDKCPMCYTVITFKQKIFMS

[18] = biological target: T6, E3 ubiquitin-protein ligase XIAP; assay: small molecules displacing peptide from XIAP – biochemical, IAP family, fluorescence polarization (AID 1018); assay type: functional
Cytochrome P450 2D6 = Cytochrome P450 2D6 (Homo sapiens, UniProt P10635);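 also: CYP2D6 member of a cytochrome P450 panel assay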
Chain of Cytochrome P450 2D6 (P10635 whole entry): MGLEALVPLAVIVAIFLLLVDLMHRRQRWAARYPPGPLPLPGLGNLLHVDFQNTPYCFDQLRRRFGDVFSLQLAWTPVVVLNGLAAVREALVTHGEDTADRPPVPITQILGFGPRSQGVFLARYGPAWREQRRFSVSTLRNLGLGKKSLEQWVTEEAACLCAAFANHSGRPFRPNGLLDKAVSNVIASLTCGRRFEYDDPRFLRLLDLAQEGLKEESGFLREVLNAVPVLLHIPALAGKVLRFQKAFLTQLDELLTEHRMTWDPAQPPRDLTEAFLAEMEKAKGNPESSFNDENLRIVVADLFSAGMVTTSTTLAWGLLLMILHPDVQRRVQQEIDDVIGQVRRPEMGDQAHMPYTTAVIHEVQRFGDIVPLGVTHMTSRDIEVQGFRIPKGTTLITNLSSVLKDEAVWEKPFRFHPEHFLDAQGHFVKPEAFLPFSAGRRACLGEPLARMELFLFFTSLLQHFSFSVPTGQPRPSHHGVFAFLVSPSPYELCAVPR

Cytochrome P450 2C19 = Cytochrome P450 2C19 (Homo sapiens, UniProt P33261); assay: Cytochrome panel assay with activity outcomes. Panel member name: p450-cyp2c19 Compounds with AC50 equal or less than 10 uM are considered active; assay type: functional; settings: read-out: AC50
Chain of Cytochrome P450 2C19 (P33261 whole entry): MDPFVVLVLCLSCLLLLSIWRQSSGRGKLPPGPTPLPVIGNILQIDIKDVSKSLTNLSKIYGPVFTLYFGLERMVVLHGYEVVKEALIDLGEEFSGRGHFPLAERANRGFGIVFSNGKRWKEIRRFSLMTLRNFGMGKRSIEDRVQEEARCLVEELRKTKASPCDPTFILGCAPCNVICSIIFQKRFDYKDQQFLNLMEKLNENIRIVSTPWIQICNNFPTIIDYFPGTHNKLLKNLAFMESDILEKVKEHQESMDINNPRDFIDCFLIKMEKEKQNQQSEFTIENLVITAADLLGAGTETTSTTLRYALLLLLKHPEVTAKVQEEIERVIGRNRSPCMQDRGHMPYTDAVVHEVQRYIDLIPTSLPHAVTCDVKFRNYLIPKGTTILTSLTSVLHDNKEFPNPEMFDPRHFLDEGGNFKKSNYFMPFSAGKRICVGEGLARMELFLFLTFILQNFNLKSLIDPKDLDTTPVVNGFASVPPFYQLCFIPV

Coagulation factor XII = biological target: T7, Coagulation factor XII (Homo sapiens, UniProt P00748); assay: activated coagulation factor XII inhibitor potency, concentration-effect curve, cell-free (AID 716); assay type: functional
T7 sequence (P00748 whole entry): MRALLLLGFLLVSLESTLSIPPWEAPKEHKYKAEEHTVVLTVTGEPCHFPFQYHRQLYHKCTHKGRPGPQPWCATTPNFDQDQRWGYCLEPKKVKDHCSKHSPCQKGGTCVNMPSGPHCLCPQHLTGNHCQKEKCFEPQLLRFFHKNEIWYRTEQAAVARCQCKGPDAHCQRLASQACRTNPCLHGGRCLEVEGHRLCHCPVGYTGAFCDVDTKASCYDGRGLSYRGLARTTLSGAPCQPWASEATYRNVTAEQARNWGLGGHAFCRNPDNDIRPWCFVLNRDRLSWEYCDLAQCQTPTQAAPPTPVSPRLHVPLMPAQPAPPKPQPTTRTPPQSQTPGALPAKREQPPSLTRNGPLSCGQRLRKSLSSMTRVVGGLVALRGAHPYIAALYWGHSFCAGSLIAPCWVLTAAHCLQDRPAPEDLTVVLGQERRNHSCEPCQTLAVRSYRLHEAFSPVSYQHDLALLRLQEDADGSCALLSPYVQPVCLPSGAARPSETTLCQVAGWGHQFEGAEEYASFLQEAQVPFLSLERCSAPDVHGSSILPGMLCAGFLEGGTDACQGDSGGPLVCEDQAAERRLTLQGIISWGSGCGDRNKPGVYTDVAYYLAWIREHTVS

T1 sequence (Q01196 whole entry, the tested form may be a part): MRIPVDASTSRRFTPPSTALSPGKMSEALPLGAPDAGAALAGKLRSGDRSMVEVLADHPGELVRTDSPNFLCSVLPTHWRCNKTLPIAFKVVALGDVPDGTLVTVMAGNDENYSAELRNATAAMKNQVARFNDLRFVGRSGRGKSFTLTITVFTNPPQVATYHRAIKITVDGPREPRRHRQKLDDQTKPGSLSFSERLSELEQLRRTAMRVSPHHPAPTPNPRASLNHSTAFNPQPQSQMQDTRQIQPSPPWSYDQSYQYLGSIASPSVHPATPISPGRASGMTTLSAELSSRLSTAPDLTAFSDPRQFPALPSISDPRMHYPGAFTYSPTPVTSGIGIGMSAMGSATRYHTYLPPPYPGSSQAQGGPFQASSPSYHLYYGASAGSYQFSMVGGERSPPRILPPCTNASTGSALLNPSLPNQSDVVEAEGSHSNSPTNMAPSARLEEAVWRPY
T1 sequence (Q13951 whole entry, the tested form may be a part): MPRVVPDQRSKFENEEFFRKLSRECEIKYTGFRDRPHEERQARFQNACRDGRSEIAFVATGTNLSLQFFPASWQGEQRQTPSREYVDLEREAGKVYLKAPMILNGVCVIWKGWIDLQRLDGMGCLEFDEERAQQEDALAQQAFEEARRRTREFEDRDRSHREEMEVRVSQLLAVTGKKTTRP

CN1c2ccsc2C(O)=C(C(S)=Nc2ccc(F)c(Cl)c2)S1(=O)=O
IC50 [1]: > 100 µM (inactive)
IC50 [2]: > 100 µM (inactive)

Cc1cc(C)cc(NC(=O)C2CCCN2S(=O)(=O)c2cccc3cccnc23)c1 (stereo not given)
IC50 [3]: > 49.7 µM (inactive)
CC50 [4]: 32.9 µM (active)
IC50 [5]: 3.03 µM (active)
IC50 (CHO-K1): > 66.2 µM (inactive)
IC50 [6]: 0.244 µM (active)

CSc1nnc(NC(=O)c2nc(S(=O)(=O)Cc3cccc(C)c3)ncc2Cl)s1
AC50 [7]: 11.5 µM (active)
CC50 [8]: 26.7 µM (active)
EC50 [9]: 1.83 µM (active)
EC50 (Protein RecA): 3.16 µM (active)
IC50 [10]: 4.45 µM (active)
IC50 (Genome polyprotein): 44.5 µM (active)
CC50 (Vero): 24.9 µM (active)
AC50 [11]: 4.03 µM (active)
AC50 [12]: 3.49 µM (active)

O=C(NNc1ncnc2c1cnn2-c1ccc(F)cc1)c1ccco1
EC50 [13]: 7.17 µM (active)
IC50 [14]: > 20 µM (inactive)
EC50 [15]: > 53 µM (inactive)
IC50 [16]: < 0.368 µM (active)

COc1ccc(NC(=O)N2CCC(c3nc(-c4cccs4)no3)CC2)cc1
IC50 [17]: > 100 µM (inactive)
IC50 [18]: > 100 µM (not active)

CCS(=O)(=O)N1CCC(C(=O)NCc2ccc(F)cc2Cl)CC1
AC50 (Cytochrome P450 2D6): 14.1 µM (inconclusive)
AC50 (Cytochrome P450 2C19): 39.8 µM (inconclusive)
IC50 (Coagulation factor XII): > 50 µM (inactive)
